In patent US8865734B2 (priority 2010, dated 2014) one finds MIC data, which are given here for 30 compounds.

Structures are written as SMILES. Values after ≈ are worked out from the molar mass of the structure shown. Some results are limits rather than exact numbers.

Experiment [1] concerns M. tuberculosis inside the host macrophage. As to the kind of experiment: QIM: Quantification of Intracellular Mycobacteria (intracellular growth assay, phenotypic cell-based). As to conditions: Mycobacterium tuberculosis; MIC, 80% bacterial growth inhibition; intracellular growth; read-out: QIM. An excerpt: Accordingly, a phenotypic cell-based assay, suitable for high throughput screening, which allows for the search of compounds that would prevent M. tuberculosis multiplication inside the host macrophage was utilized (WO2010003533A2), overcoming many of the numerous and burdensome steps involved in previous methodologies (Arain et al., 1996).
(§1) A 120,000 small molecule compound library was screened using a validated phenotypic cell-based assay (WO2010003533A2). Active compounds from the primary screen were confirmed via dose response in the intracellular (QIM) assay and an in vitro (QUM) assay, wherein the abbreviation “QIM” stands for Quantification of Intracellular Mycobacteria and the abbreviation “QUM” stands for Quantification of in vitro grown Mycobacteria. […] The MIC is the minimum concentration of compound required to obtain 80% bacterial growth inhibition.
(§2) The imidazopyridine compounds (scaffolds Ia and Ib; see Table 1) underwent derivatization according to the methods outlined below (Schemes 1-13). Resulting derivatives were examined for inhibitory activity (MIC) using the assays described above (Example 1) and the results are summarized in Table 1.

In experiment [2] the test system is in vitro grown Mycobacteria (M. tuberculosis). As to the kind of experiment: QUM: Quantification of in vitro grown Mycobacteria (in vitro growth fluorescence assay). The experiment is classed as cell-based. As to conditions: Mycobacterium tuberculosis; MIC, 80% bacterial growth inhibition; in vitro growth; read-out: QUM.
Description: as §1, §2

`Cc1nc2c(C)cccn2c1C(=O)NCc1ccccc1` [Compound 30, N-Benzyl-2,8-dimethylimidazo[1,2-a]pyridine-3-carboxamide]: the MIC in experiment [1] and in experiment [2] was > 20 µM each time.

For the compound `Cc1ccn2c(C(=O)NCc3ccccc3)c(C)nc2c1` [Compound 31, N-Benzyl-2,7-dimethylimidazo[1,2-a]pyridine-3-carboxamide], the MIC in experiment [1] is < 1 µM; in experiment [2], 1 to 20 µM (≈ 0.279 to 5.59 µg/mL).

As to `Cc1ccc2nc(C)c(C(=O)NCc3ccccc3)n2c1` [Compound 32, N-Benzyl-2,6-dimethylimidazo[1,2-a]pyridine-3-carboxamide], the MIC in experiment [1] and in experiment [2] was < 1 µM throughout.

For the compound `Cc1nc2cccc(C)n2c1C(=O)NCc1ccccc1` [Compound 33, N-Benzyl-2,5-dimethylimidazo[1,2-a]pyridine-3-carboxamide], the MIC in experiment [1] and in experiment [2] was > 20 µM each time.

On to `Cc1nc2ccc(F)cn2c1C(=O)NCc1ccccc1` [Compound 34, N-Benzyl-6-fluoro-2-methylimidazo[1,2-a]pyridine-3-carboxamide], for which the MIC in experiment [1] and in experiment [2] was 1 to 20 µM (≈ 0.283 to 5.67 µg/mL) each time.

`Cc1nc2cc(C#N)ccn2c1C(=O)NCc1ccccc1` [Compound 35, N-Benzyl-7-cyano-2-methylimidazo[1,2-a]pyridine-3-carboxamide]: the MIC in experiment [1] and in experiment [2] was > 20 µM each time.

Take `Cc1nc2ccc(C#N)cn2c1C(=O)NCc1ccccc1` [Compound 36, N-Benzyl-6-cyano-2-methylimidazo[1,2-a]pyridine-3-carboxamide]: the MIC in experiment [1] and in experiment [2] was > 20 µM in each case.

Regarding `Cc1nc2cc(-c3ccccc3)ccn2c1C(=O)NCc1ccccc1` [Compound 37, N-Benzyl-2-methyl-7-phenylimidazo[1,2-a]pyridine-3-carboxamide], the MIC in experiment [1] and in experiment [2] was > 20 µM each time.

For the compound `Cc1nc2ccc(-c3ccccc3)cn2c1C(=O)NCc1ccccc1` [Compound 38, N-Benzyl-2-methyl-6-phenylimidazo[1,2-a]pyridine-3-carboxamide], the MIC in experiment [1] and in experiment [2] was > 20 µM each time.

Regarding `Cc1nc2c(F)cccn2c1C(=O)NCc1ccccc1` [Compound 39, N-Benzyl-8-fluoro-2-methylimidazo[1,2-a]pyridine-3-carboxamide], the MIC in experiment [1] and in experiment [2] was 1 to 20 µM (≈ 0.283 to 5.67 µg/mL) throughout.

`Cc1nc2c(C(F)(F)F)cccn2c1C(=O)NCc1ccccc1` [Compound 40, N-Benzyl-2-methyl-8-(trifluoromethyl)imidazo[1,2-a]pyridine-3-carboxamide]: the MIC in experiment [1] and in experiment [2] was > 20 µM in each case.

As to `COc1cccn2c(C(=O)NCc3ccccc3)c(C)nc12` [Compound 41, N-Benzyl-8-methoxy-2-methylimidazo[1,2-a]pyridine-3-carboxamide], the MIC in experiment [1] and in experiment [2] was > 20 µM in each case.

As to `Cc1nc2c(C#N)cccn2c1C(=O)NCc1ccccc1` [Compound 42, N-Benzyl-8-cyano-2-methylimidazo[1,2-a]pyridine-3-carboxamide], the MIC in experiment [1] and in experiment [2] was > 20 µM in each case.

With `Cc1nc2c(O)cccn2c1C(=O)NCc1ccccc1` [Compound 43, N-Benzyl-8-hydroxy-2-methylimidazo[1,2-a]pyridine-3-carboxamide], the MIC in experiment [1] and in experiment [2] was > 20 µM each time.

Turning to `Cc1nc2ccc(Cl)cn2c1C(=O)NCc1ccc(-c2ccccc2)cc1` [Compound 44], the MIC in experiment [1] and in experiment [2] was < 1 µM in each case.

Regarding `Cc1nc2cc(Cl)ccn2c1C(=O)NCc1ccc(-c2ccccc2)cc1` [Compound 45], the MIC in experiment [1] and in experiment [2] was < 1 µM each time.

For the compound `CCc1nc2ccccn2c1C(=O)NCc1ccccc1` [Compound 46, N-Benzyl-2-ethylimidazo[1,2-a]pyridine-3-carboxamide], the MIC in experiment [1] and in experiment [2] was 1 to 20 µM (≈ 0.279 to 5.59 µg/mL) each time.

For `CCCc1nc2ccccn2c1C(=O)NCc1ccccc1` [Compound 48, N-Benzyl-2-propylimidazo[1,2-a]pyridine-3-carboxamide], the results for the MIC in experiment [1] and in experiment [2] were > 20 µM and 1 to 20 µM (≈ 0.293 to 5.87 µg/mL), respectively.

As for `CCCc1nc2ccccn2c1C(=O)NCc1ccc(-c2ccccc2)cc1` [Compound 49, N-(Biphenyl-4-ylmethyl)-2-propylimidazo[1,2-a]pyridine-3-carboxamide], the MIC in experiment [1] and in experiment [2] was < 1 µM each time.

As to `O=C(NCc1ccccc1)c1c(C2CC2)nc2ccccn12` [Compound 50, N-Benzyl-2-cyclopropylimidazo[1,2-a]pyridine-3-carboxamide], the MIC in experiment [1] and in experiment [2] was 1 to 20 µM (≈ 0.291 to 5.83 µg/mL) throughout.

For `CC(C)c1nc2ccccn2c1C(=O)NCc1ccccc1` [Compound 51, N-Benzyl-2-isopropylimidazo[1,2-a]pyridine-3-carboxamide], the MIC in experiment [1] and in experiment [2] was > 20 µM each time.

In the case of `CC(C)c1nc2ccccn2c1C(=O)NCc1ccc(-c2ccccc2)cc1` [Compound 52, N-(Biphenyl-4-ylmethyl)-2-isopropylimidazo[1,2-a]pyridine-3-carboxamide], the MIC in experiment [1] and in experiment [2] was 1 to 20 µM (≈ 0.369 to 7.39 µg/mL) throughout.

For the compound `O=C(NCc1ccccc1)c1c(-c2ccccc2)nc2ccccn12` [Compound 53, N-Benzyl-2-phenylimidazo[1,2-a]pyridine-3-carboxamide], the MIC in experiment [1] and in experiment [2] was > 20 µM each time.

Regarding `CCc1nc2ccccn2c1C(=O)NCc1ccc(C(C)(C)C)cc1` [Compound 55, N-(4-tert-Butylbenzyl)-2-ethylimidazo[1,2-a]pyridine-3-carboxamide], the MIC in experiment [1] and in experiment [2] was < 1 µM in each case.

Consider `CCc1nc2ccccn2c1C(=O)NCc1ccc2c(ccn2C)c1` [Compound 56, 2-Ethyl-N-((1-methyl-1H-indol-5-yl)methyl)imidazo[1,2-a]pyridine-3-carboxamide], for which the MIC in experiment [1] and in experiment [2] was < 1 µM each time.

For `CCc1nc2ccccn2c1C(=O)NCc1ccc(OC(F)(F)F)cc1` [Compound 57, 2-Ethyl-N-(4-(trifluoromethoxy)benzyl)imidazo[1,2-a]pyridine-3-carboxamide], the MIC in experiment [1] and in experiment [2] was < 1 µM in each case.

On to `CCc1nc2ccccn2c1C(=O)NCc1ccc2ccn(C)c2c1` [Compound 58, 2-Ethyl-N-((1-methyl-1H-indol-6-yl)methyl)imidazo[1,2-a]pyridine-3-carboxamide], for which the MIC in experiment [1] and in experiment [2] was 1 to 20 µM (≈ 0.332 to 6.65 µg/mL) throughout.

On to `CCc1nc2ccccn2c1C(=O)NCc1ccc(OC(C)C)cc1` [Compound 60, 2-Ethyl-N-(4-isopropoxybenzyl)imidazo[1,2-a]pyridine-3-carboxamide], for which the MIC in experiment [1] and in experiment [2] was < 1 µM each time.

Turning to `CCc1nc2ccccn2c1C(=O)NCc1ccc(OCC(C)C)cc1` [Compound 61, 2-Ethyl-N-(4-isobutoxybenzyl)imidazo[1,2-a]pyridine-3-carboxamide], the MIC in experiment [1] and in experiment [2] was < 1 µM throughout.

Regarding `CCc1nc2ccc(C)cn2c1C(=O)NCc1ccc(-c2ccccc2)cc1` [Compound 62, N-(Biphenyl-4-ylmethyl)-2-ethyl-6-methylimidazo[1,2-a]pyridine-3-carboxamide], the MIC in experiment [1] and in experiment [2] was < 1 µM each time.
